Test results from US9624214B2, “Amino-substituted imidazo[1,2-a]pyridinecarboxamides and their use” (BAYER PHARMA AKTIENGESELLSCHAFT, priority 2012, dated 2017).
Counter-ions that a name gives are not always drawn.

These compounds were tested against T1, recombinant guanylate cyclase reporter cell line (Rattus norvegicus, UniProt P19686+P20595) (assay: B-2. Action on recombinant guanylate cyclase reporter cell line). Conditions: MEC = minimal effective concentration; in some cases mean values from individual determinations.
T1 construct: expressed in transfected cells
T1 sequence (P20595 1-619): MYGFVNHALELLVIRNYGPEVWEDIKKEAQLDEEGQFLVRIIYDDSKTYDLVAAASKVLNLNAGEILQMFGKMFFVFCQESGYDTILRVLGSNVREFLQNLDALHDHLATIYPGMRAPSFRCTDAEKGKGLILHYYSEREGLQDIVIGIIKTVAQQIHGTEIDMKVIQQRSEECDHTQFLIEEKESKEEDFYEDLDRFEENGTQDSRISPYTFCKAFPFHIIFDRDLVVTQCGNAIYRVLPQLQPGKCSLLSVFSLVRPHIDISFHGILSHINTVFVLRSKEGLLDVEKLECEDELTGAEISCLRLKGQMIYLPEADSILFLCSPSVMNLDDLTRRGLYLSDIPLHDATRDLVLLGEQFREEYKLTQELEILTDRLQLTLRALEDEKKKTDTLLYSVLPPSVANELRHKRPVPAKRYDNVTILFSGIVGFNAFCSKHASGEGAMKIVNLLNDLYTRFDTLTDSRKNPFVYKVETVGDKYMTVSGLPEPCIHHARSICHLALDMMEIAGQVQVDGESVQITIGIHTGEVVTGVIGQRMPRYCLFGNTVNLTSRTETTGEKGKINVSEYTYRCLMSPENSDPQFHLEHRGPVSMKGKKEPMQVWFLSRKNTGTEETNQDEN
T1 sequence (P19686 1-690): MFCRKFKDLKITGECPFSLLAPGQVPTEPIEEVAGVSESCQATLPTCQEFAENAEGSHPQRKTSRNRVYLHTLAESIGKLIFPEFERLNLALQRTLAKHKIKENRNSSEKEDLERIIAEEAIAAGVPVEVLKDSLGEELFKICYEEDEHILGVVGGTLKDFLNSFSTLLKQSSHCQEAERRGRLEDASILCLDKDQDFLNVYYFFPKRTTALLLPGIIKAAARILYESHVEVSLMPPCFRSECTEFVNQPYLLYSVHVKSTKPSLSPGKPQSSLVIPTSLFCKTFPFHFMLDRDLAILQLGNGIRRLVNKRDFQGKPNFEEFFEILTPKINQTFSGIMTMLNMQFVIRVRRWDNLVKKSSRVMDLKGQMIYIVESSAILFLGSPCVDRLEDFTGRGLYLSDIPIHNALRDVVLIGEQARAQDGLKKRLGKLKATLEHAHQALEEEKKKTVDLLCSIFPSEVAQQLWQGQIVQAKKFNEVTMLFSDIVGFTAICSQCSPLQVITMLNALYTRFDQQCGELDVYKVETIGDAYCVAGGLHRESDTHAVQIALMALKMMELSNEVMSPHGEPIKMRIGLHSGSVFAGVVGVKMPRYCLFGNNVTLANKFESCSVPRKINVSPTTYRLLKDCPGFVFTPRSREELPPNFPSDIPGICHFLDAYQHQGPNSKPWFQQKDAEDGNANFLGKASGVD
Assay type: cell-based
Procedure, shortened: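 Compounds are tested on whole cells carrying a guanylate cyclase reporter construct. The lowest concentration giving an effect is recorded as the MEC.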
`Cc1cc(OCc2c(F)cccc2F)c2nc(C)c(C(=O)NC(CN)c3cc(F)c(F)c(F)c3)n2c1` (racemic) [Example 390, rac-N-[2-amino-1-(3,4,5-trifluorophenyl)ethyl]-8-[(2,6-ifluorobenzyl)oxy]-2,6-dimethylimidazo[1,2-a]pyridine-3-carboxamide] showed an MEC of 0.30 µM.
`CSCCC(CN)NC(=O)c1c(C)nc2c(OCc3c(F)cccc3F)cc(C)cn12` (racemic) [Example 391, rac-N-[1-amino-4-(methylsulfanyl)butan-2-yl]-8-[(2,6-difluorobenzyl)oxy]-2,6-dimethylimidazo[1,2-a]pyridine-3-carboxamide] was tested, and the MEC was 0.10 µM.
For `Cc1cc(OCc2c(F)cccc2F)c2nc(C)c(C(=O)NC(CN)c3cccc(OC(F)F)c3)n2c1` (racemic) [Example 392, rac-N-{2-amino-1-[3-(difluoromethoxy)phenyl]ethyl}-8-[(2,6-difluorobenzyl)oxy]-2,6-dimethylimidazo[1,2-a]pyridine-3-carboxamide], the MEC was 1.00 µM.
For `Cc1cc(OCc2c(F)cccc2F)c2nc(C)c(C(=O)NC(CN)c3cccc(OCCO)c3)n2c1` (racemic) [Example 393, rac-N-{2-amino-1-[3-(2-hydroxyethoxy)phenyl]ethyl}-8-[(2,6-difluorobenzyl)oxy]-2,6-dimethylimidazo[1,2-a]pyridine-3-carboxamide], the MEC was 1.00 µM.
In the case of `Cc1cc(OCc2c(F)cccc2F)c2nc(C)c(C(=O)NC(CN)c3cccc(C(F)(F)F)c3)n2c1` (racemic) [Example 394, rac-N-{2-amino-1-[3-(trifluoromethyl)phenyl]ethyl}-8-[(2,6-difluorobenzyl)oxy]-2,6-dimethylimidazo[1,2-a]pyridine-3-carboxamide], the MEC is reported as 0.30 µM.
Compound `Cc1cc(OCc2c(F)cccc2F)c2nc(C)c(C(=O)NC(CN)c3ccc4ncccc4c3)n2c1` (racemic) [Example 395, rac-N-[2-amino-1-(quinolin-6-yl)ethyl]-8-[(2,6-difluorobenzyl)oxy]-2,6-dimethylimidazo[1,2-a]pyridine-3-carboxamide] has an MEC of 1.00 µM.
`CC(=O)Nc1cccc(C(CN)NC(=O)c2c(C)nc3c(OCc4c(F)cccc4F)cc(C)cn23)c1` (racemic) [Example 396, rac-N-[1-(3-acetamidophenyl)-2-aminoethyl]-8-[(2,6-difluorobenzyl)oxy]-2,6-dimethylimidazo[1,2-a]pyridine-3-carboxamide] was tested, and the MEC was 3.00 µM.
Work on `CCOC(=O)c1cccc(C(CN)NC(=O)c2c(C)nc3c(OCc4c(F)cccc4F)cc(C)cn23)n1` (racemic) [Example 397, rac-ethyl 6-{2-amino-1-[({8-[(2,6-difluorobenzyl)oxy]-2,6-dimethylimidazo[1,2-a]pyridin-3-yl}carbonyl)amino]ethyl}pyridine-2-carboxylate] yielded an MEC of 1.00 µM.
`Cc1cc(OCc2c(F)cccc2F)c2nc(C)c(C(=O)NC(CN)c3ccc(C#N)cc3)n2c1` (racemic) [Example 398, rac-N-[2-amino-1-(4-cyanophenyl)ethyl]-8-[(2,6-difluorobenzyl)oxy]-2,6-dimethylimidazo[1,2-a]pyridine-3-carboxamide] showed an MEC of 0.30 µM.
With `COC(=O)c1cccc(C(N)CNC(=O)c2c(C)nc3c(OCc4c(F)cccc4F)cc(C)cn23)c1` (racemic) [Example 399, rac-Methyl 3-{1-amino-2-[({8-[(2,6-difluorobenzyl)oxy]-2,6-dimethylimidazo[1,2-a]pyridin-3-yl}carbonyl)amino]ethyl}benzoate] the MEC was 1.00 µM.
With `Cc1cc(OCc2c(F)cccc2F)c2nc(C)c(C(=O)NCC(N)C#N)n2c1` (racemic) [Example 400, rac-N-(2-amino-2-cyanoethyl)-8-[(2,6-difluorobenzyl)oxy]-2,6-dimethylimidazo[1,2-a]pyridine-3-carboxamide] the MEC was 0.65 µM.
Compound `CC=CCC(N)CNC(=O)c1c(C)nc2c(OCc3c(F)cccc3F)cc(C)cn12` (racemic) [Example 406, rac-N-[(4E/Z)-2-aminohex-4-en-1-yl]-8-[(2,6-difluorobenzyl)oxy]-2,6-dimethylimidazo[1,2-a]pyridine-3-carboxamide] has an MEC of 0.10 µM.
`CSCCC(N)CNC(=O)c1c(C)nc2c(OCc3c(F)cccc3F)cc(C)cn12` (racemic) [Example 412, rac-N-[2-amino-4-(methylsulfanyl)butyl]-8-[(2,6-difluorobenzyl)oxy]-2,6-dimethylimidazo[1,2-a]pyridine-3-carboxamide] gave an MEC of 0.10 µM.
In the case of `Cc1cc(OCc2c(F)cccc2F)c2nc(C)c(C(=O)NCC(N)CCS(C)(=O)=O)n2c1` (racemic) [Example 413, rac-N-[2-amino-4-(methylsulfonyl)butyl]-8-[(2,6-difluorobenzyl)oxy]-2,6-dimethylimidazo[1,2-a]pyridine-3-carboxamide], the MEC is reported as 5.5 µM.
`Cc1cc(OCc2c(F)cccc2F)c2nc(C)c(C(=O)NCC3CS(=O)(=O)CCN3)n2c1` (racemic) [Example 414, rac-8-[(2,6-difluorobenzyl)oxy]-N-[(1,1-dioxidothiomorpholin-3-yl)methyl]-2,6-dimethylimidazo[1,2-a]pyridine-3-carboxamide] was tested, and the MEC was 0.30 µM.
With `Cc1cc(OCc2c(F)cccc2F)c2nc(C)c(C(=O)NCC(N)c3csc(C)n3)n2c1` (racemic) [Example 415, rac-N-[2-amino-2-(2-methyl-1,3-thiazol-4-yl)ethyl]-8-[(2,6-difluorobenzyl)oxy]-2,6-dimethylimidazo[1,2-a]pyridine-3-carboxamide Triformate] the MEC was 5.5 µM.
`Cc1cc(OCc2c(F)cccc2F)c2nc(C)c(C(=O)NC(C#N)CN)n2c1` (racemic) [Example 416, rac-N-(2-amino-1-cyanoethyl)-8-[(2,6-difluorobenzyl)oxy]-2,6-dimethylimidazo[1,2-a]pyridine-3-carboxamide] gave an MEC of 1.00 µM.
Work on `CCOCC(CN)NC(=O)c1c(C)nc2c(OCc3c(F)cccc3F)cccn12` (single isomer, unassigned) [Example 56, ent-N-(1-amino-3-ethoxypropan-2-yl)-8-[(2,6-difluorobenzyl)oxy]-2-methylimidazo[1,2-a]-pyridine-3-carboxamide] yielded an MEC of 1.00 µM.
In the case of `CCOCC(CN)NC(=O)c1c(C)nc2c(OCc3c(F)cccc3F)cc(Cl)cn12` (single isomer, unassigned) [Example 57, ent-N-(1-amino-3-ethoxypropan-2-yl)-6-chloro-8-[(2,6-difluorobenzyl)oxy]-2-methylimidazo[1,2-a]-pyridine-3-carboxamide], the MEC is reported as 0.30 µM.
Compound `Cc1nc2c(OCc3c(F)cccc3F)cccn2c1C(=O)NC(CN)COC(C)C` (single isomer, unassigned) [Example 93, ent-N-(1-Amino-3-isopropoxypropan-2-yl)-8-[(2,6-difluorobenzyl)oxy]-2-methylimidazo[1,2-a]-pyridine-3-carboxamide] has an MEC of 0.30 µM.
`Cc1nc2c(OCc3c(F)cccc3F)cccn2c1C(=O)NCC(C)CN` (single isomer, unassigned) [Example 95, ent-N-(3-Amino-2-methylpropyl)-8-[(2,6-difluorobenzyl)oxy]-2-methylimidazo[1,2-a]pyridine-3-carboxamide Dihydrochloride] showed an MEC of 1.00 µM.
For `Cc1nc2c(OCc3c(F)cccc3F)cccn2c1C(=O)NCC(C)CN` (single isomer, unassigned) [Example 96, ent-N-(3-Amino-2-methylpropyl)-8-[(2,6-difluorobenzyl)oxy]-2-methylimidazo[1,2-a]pyridine-3-carboxamide Dihydrochloride], the MEC was 1.00 µM.
With `COCC(CN)NC(=O)c1c(C)nc2c(OCc3c(F)cccc3F)cccn12` (single isomer, unassigned) [Example 122, ent-N-(1-Amino-3-methoxypropan-2-yl)-8-[(2,6-difluorobenzyl)oxy]-2-methylimidazo[1,2-a]-pyridine-3-carboxamide Ditrifluoroacetate] the MEC was 1.00 µM.
In the case of `COCC(CN)NC(=O)c1c(C)nc2c(OCc3c(F)cccc3F)cccn12` (single isomer, unassigned) [Example 123, ent-N-(1-Amino-3-methoxypropan-2-yl)-8-[(2,6-difluorobenzyl)oxy]-2-methylimidazo[1,2-a]-pyridine-3-carboxamide Ditrifluoroacetate], the MEC is reported as 3.00 µM.
